Test results: patent publication US20030109519A1, “Use of selective potassium channel openers” (priority 2001, published 2003)

What was measured:
perfused pancreas = test: Perfused pancreas from treated diabetic Zucker rats; format: in vivo, rat
Description: (§1) A study was performed in a colony of diabetic Zucker rats housed in Vancouver, Canada. This is a model of hyperinsulinemia and impaired glucose tolerance/mild type 2 diabetes. The aim was to investigate whether treatment with the test compound 6-chloro-3-(1-methylcylodopropyl)amino-4H-thieno[3,2-e]-1,2,4-thiadiazine 1,1-dioxide could lead to a reduction in hyperinsulinemia and an improvement in insulin secretory responsiveness to glucose in the perfused pancreas. Male diabetic Zucker rats were dosed for 3 weeks with either 1.5 mg/kg 6-chloro-3-(1-methylcylodopropyl)amino-4H-thieno[3,2-e]-1,2,4-thiadiazine 1,1-dioxide bid (n=8) or vehicle (n=16). Oral glucose tolerance was assessed in the animals the day after the last dose was given.

diabetic Zucker rats = test: Oral glucose tolerance test after 3 weeks dosing in diabetic Zucker rats; format: in vivo, rat; details: male diabetic Zucker rats, 1.5 mg/kg bid for 3 weeks, vs vehicle
Description: as §1

[1] = molecular target: KATP-channels on pancreatic beta-cells (Homo sapiens, UniProt Q09428); details: by activation of KATP-channels on pancreatic beta-cells; Pirotte et al. 1993, 1994; cited from earlier work
KATP-channels on pancreatic beta-cells, sequence (Q09428 whole entry): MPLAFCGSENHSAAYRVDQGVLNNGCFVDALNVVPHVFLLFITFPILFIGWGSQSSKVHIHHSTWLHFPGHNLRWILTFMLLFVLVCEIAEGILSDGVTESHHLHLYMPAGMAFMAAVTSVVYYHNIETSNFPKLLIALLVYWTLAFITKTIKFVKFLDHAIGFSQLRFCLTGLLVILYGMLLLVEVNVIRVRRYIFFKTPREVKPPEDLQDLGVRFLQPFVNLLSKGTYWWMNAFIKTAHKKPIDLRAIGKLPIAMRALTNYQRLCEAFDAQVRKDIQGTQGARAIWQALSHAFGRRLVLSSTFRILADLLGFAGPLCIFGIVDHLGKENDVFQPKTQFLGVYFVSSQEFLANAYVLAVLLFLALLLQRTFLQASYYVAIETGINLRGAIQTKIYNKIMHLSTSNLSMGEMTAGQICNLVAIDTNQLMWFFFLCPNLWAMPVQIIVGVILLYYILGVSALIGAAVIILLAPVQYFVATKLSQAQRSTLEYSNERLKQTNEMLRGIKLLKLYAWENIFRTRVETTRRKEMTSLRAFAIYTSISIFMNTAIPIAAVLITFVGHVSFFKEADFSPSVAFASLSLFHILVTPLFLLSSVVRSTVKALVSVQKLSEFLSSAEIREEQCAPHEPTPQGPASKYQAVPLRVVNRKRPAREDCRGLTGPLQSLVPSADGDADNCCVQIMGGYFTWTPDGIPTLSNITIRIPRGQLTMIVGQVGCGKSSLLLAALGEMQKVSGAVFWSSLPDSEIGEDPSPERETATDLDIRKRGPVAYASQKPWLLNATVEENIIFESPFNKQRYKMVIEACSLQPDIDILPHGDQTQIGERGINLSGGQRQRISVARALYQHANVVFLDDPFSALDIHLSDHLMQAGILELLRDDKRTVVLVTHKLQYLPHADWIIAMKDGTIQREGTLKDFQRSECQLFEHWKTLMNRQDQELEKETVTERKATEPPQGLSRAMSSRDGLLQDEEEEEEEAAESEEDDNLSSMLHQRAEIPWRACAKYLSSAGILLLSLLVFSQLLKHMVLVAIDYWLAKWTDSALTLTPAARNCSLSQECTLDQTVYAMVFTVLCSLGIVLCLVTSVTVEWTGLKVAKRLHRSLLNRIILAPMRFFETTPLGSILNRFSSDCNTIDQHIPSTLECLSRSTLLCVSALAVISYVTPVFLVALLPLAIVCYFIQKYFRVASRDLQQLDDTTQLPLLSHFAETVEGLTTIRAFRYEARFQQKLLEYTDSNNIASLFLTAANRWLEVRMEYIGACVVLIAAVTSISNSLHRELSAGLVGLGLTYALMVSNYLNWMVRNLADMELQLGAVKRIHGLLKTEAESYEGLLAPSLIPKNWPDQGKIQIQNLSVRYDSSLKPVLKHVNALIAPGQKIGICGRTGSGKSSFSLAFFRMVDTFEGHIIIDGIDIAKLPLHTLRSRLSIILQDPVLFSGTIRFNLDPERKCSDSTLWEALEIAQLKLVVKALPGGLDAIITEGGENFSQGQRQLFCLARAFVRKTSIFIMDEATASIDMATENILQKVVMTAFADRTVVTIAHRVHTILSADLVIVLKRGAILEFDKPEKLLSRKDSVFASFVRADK
KATP-channels on pancreatic beta-cells, sequence (Q14654 whole entry partner): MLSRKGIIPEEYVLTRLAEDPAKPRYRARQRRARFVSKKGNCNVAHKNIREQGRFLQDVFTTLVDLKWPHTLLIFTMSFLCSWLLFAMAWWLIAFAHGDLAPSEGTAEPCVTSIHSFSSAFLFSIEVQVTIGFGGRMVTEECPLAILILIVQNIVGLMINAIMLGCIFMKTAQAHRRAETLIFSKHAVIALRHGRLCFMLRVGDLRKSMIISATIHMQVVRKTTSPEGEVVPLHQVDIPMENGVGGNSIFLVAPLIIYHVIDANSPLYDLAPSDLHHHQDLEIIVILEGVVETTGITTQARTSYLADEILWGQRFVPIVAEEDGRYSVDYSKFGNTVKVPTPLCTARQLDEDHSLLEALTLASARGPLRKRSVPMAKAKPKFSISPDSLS

CC1(NC2=NS(=O)(=O)c3sc(Cl)cc3N2)CC1 [6-chloro-3-(1-methylcylodopropyl)amino-4H-thieno[3,2-e]-1,2,4-thiadiazine 1,1-dioxide]
hyperinsulinemia in perfused pancreas (perfused pancreas; pancreata from rats treated 1.5 mg/kg bid for 3 weeks, evaluated two days after OGTT): reduced hyperinsulinemia | insulin secretory responsiveness to glucose in perfused pancreas (perfused pancreas; pancreata from treated rats, two days after OGTT, data expressed relative to baseline): improved insulin secretory responsiveness to glucose | oral glucose tolerance (diabetic Zucker rats; assessed the day after the last dose): significantly improved | hyperinsulinemia (associated with the oral glucose tolerance test) (diabetic Zucker rats; day after the last dose): significant reduction in hyperinsulinemia

CC1=Nc2ccc(Cl)cc2S(=O)(=O)N1 [diazoxide, 7-chloro-3-methyl-2H-1,2,4-benzothiadiazine 1,1-dioxide]
insulin release [1]: inhibit insulin release
